Values of other authors, collected in patent US20130034605A1, “EXTENDED RELEASE PHARMACEUTICAL COMPOSITIONS CONTAINING PALIPERIDONE” (MICRO LABS LIMITED, priority 2011, published 2013).
Like-named read-outs stand apart in the source and are kept apart here.

- Solubility (in 0.1 N hydrochloric acid): soluble
- Solubility (in methanol): soluble
- Solubility (in methylene chloride): freely soluble
- Solubility (in water): practically insoluble
SMILES: Cc1nc2n(c(=O)c1CCN1CCC(c3noc4cc(F)ccc34)CC1)CCCC2O (racemic) [Paliperidone, (RS)-3-[2-[4-(6-fluorobenzo[d]isoxazol-3-yl)-1-piperidyl]ethyl]-7-hydroxy-4-methyl-1,5-diazabicyclo[4.4.0]deca-3,5-dien-2-one]
